In patent EP0565593B1, “REDUCING PESTICIDAL INTERACTIONS IN CROPS” (priority 1990, dated 1992):
Where “and” joins values, the source holds several entries; their conditions need not be identical. Identical values can stand only once. Like-named read-outs stand apart in the source and are kept apart here.

How the values were obtained:
Corn [1] = assay: Greenhouse test Procedure VI: biocide and antidote in furrow, herbicide PPI in cover layer (Examples 43-47, 59-61; Tables 42-46, 58-60); format: in vivo; conditions: Example 43; Antidotes 1, 7, 12, 33
From the text: This procedure describes interaction among herbicide, biocide and antidote when the herbicide is incorporated in a soil cover layer and the biocide and the antidote are applied in a soil furrow containing crop seed before emergence of the crop. The soil and seeding depth were described in Procedure IV. A first container was designated as an untreated control, a second container was designated as a herbicide control, a third container was designated as a herbicide + biocide control and a fourth container as a herbicide + biocide + antidote test container. The biocide and antidote were formulated as granules. The biocide was applied to the soil furrows of the third and fourth containers at an application rate of 1.1 mg of active compound per cm of row. The antidote was applied to the soil furrow of the fourth container at an application rate of 0.37 mg of active compound per cm of row. A measured amount of the herbicide dispersed or dissolved in acetone was applied to a measured quantity of soil. The quantity of soil treated with the herbicide was thoroughly mixed to incorporate the herbicide. Samples of this soil were used to cover the seed beds of the second, third and fourth containers. For each test series, the seed bed of the first container was likewise covered by a soil layer not treated with herbicide and without biocide or antidote in the soil furrow.
The containers were then placed on a bench in a greenhouse. Watering was by subirrigation plus overhead irrigation after the plants emerged. All treatments were run in duplicate. Plant response was observed according to Procedure IV. Variations in this procedure will be noted in the examples.
In continuing tests to evaluate the variations of this invention, a series of tests were conducted to determine the efficacy of the above safeners in Examples 39-42 to alleviate corn injury induced by the interaction of various additional commercial sulfonylurea herbicides with COUNTER 15G insecticide. In this example, the tests were conducted according to Procedure VI above. In modifications of that procedure, herbicides were applied to soil samples as acetone/water suspensions, incorporated by shaking in a closed container, with subsamples used to cover furrow-treated 10.2 cm pots. Pots were subirrigated followed by overhead misting on days 6-10.
This example was designed to test the safening effect of those above safeners used in this test series to relieve corn injury by negative synergism induced by interaction of COUNTER 15G and three imidazolinone herbicides, i.e., imazaquin and imazapyr (used in the POE tests in Example 41) and AC 263222 (a.i. in CADRE® herbicide). As differing from the tests in Example 41, this test was a PPI test according to Procedure VI described above. Observation of test results (Table 43) were taken thirteen 913) days after in-furrow PPI preparation.
This example describes PPI tests to evaluate said test safeners in this series with analogs of the sulfonamide herbicides tested under POE herbicide application procedures described in Example 42. In these tests, conducted according to Procedure VI described above, Herbicide Nos. 20, 22 and 24 were applied PPI with the insecticide and antidote. Observations of tests results were made thirteen days after PPI initiation.
An additional three (3) sulfonamide herbicide analogs were tested simultaneously and under the same conditions described in Example 45.
Another test of this invention involved the safening effects of the safeners in this series against negative synergy inducted by the interaction of COUNTER 15G and a sulfonylurea herbicide (OUST®), Herbicide No. 13, and PURSUIT, an imidazolinone herbicide, No. 6. Test conditions were the same as those in Examples 43-46. Other procedures for applying herbicidal formulations are as described in Example 42. […]

Corn [2] = assay: Greenhouse test, combination of Procedures II and III: insecticide in-furrow or in cover layer, herbicide and antidote incorporated in cover layer (Examples 1-3, 6; Tables 1-3, 6); format: in vivo; conditions: for % Injury Corn: 3 weeks
[3] = tested on: velvetleaf (Abutilon theophrasti); assay: Greenhouse test, combination of Procedures II and III (Examples 1, 2; Tables 1, 2); format: in vivo; conditions: 3 weeks
Shattercane (SHCA) = format: in vivo; conditions: […]
Velvetleaf (VELE) [4] = format: in vivo, Abutilon theophrasti; conditions: […]
Giant foxtail (GIFT) = assay: whole plant or invertebrate; format: in vivo; conditions: […]; PPI; 14 days after PPI (Table 34)
Velvetleaf (VELE) [5] = assay: whole plant or invertebrate; format: in vivo, Abutilon theophrasti; conditions: […]; PPI; 14 days after PPI (Table 34)
Corn [6] = assay: Greenhouse test Procedure VII: biocide and antidote in furrow, herbicide POE (Examples 39-42, 48-50, 56-58; Tables 38-41, 47-49, 55-57); format: in vivo; conditions: Herbicide No. 8 0.28 Kg/Ha POE + COUNTER 15G 227 g/305 m + antidote in furrow
From the text: This procedure describes interaction among herbicide, biocide and antidote when the biocide and the antidote is applied to a soil furrow containing crop seed before emergence of the crop and the herbicide is applied after emergence of the crop and weeds. The soil and planting depth was described in Procedure IV. The containers for comparison, the biocide and antidote applications to soil furrows were described in Procedure VI. In this procedure, the seed beds of the first, second, third and fourth containers are covered by soil layers not treated with herbicide. The containers were then placed on a bench in a greenhouse and subirrigated as required for the duration of the test. The herbicide, dispersed or dissolved in water containing 0.25% v/v nonionic surfactant (X-77) was applied by a track sprayer (187 L/ha) to the emerged plants of the second, third and fourth containers about five days after planting. All treatments were run in duplicate. Plant response was observed according to Procedure IV. Variations in this procedure will be noted in the examples.
In this example, tests were conducted according to Procedure VII for the POE application of the herbicides following in-furrow application of COUNTER® 15G insecticide (BIOCIDE No. 1) and the antidote on the pre-planted test seeds. In this test, the herbicides were Nos. 1 (MON-12000), 10 (ALLY®) and #4 (HARMONY®) and the Antidote Nos. 1, 7, 12 and 33.
These in-furrow treatments comprised a 50-50 mix of blended granules of COUNTER with and without 5G granular antidotes at 7.4 + 7.4 mg/cm or 1.1 + 0.37 mg active ingredient (a.i.)/cm. The in-furrow initiation of the test was followed five (5) days later with POE application of the herbicides; observations were made eight (8) days later.
In another test, conducted simultaneously with that in Example 39, Herbicide Nos. 5 (chlorimuron ethyl, active ingredient in CLASSIC® herbicide), 7 (nicosulfuron, active ingredient in ACCENT® herbicide) and 15 (tribenuron methyl, active ingredient in EXPRESS® herbicide) were substituted as test herbicides.
In this example, using the same procedure as above, the following imidazolinone herbicides were used with the same insecticide/biocide and antidotes as above: Herb. No. 16 (imazaquin, a.i. in SCEPTER® herbicide; No. 19 (Code No. AC 222293, a.i. in ASSERT® herbicide); No. 6 (imazethapyr, a.i. in PURSUIT® herbicide and No. 18 (imazapyr, a.i. in ARSENAL® herbicide). Test results are shown in Table 40. Table 40
This example describes the testing of the above antidotes used in Examples 39-41 to safen negative synergy interactions between representative species of the class of herbicidal compounds identified as azolopyrimidine sulfonamides and COUNTER 15G. The same procedure used in the above examples was conducted in this test. In this test, the herbicides were formulated in 17% acetone and 83% water with 0.25% v/v X-77 surfactant.
In these tests (according to Procedure VII) the safeners in solution with acetone were applied in furrow to the soil, followed by COUNTER 15G granules at 227 g/305 m (8 oz./1000'). Applications were made in alternate rows in two separate 13.7 cm x 27.7 cm pans containing Dupo silt loam. Pans were seeded 1.3 cm deep, placed on benches in a greenhouse and subirrigated. BEACON was formulated in water with 0.25% v/v X-77 surfactant and applied by track sprayer at a rate of 187 L/Ha (20 gal/A). Weed species in this test were giant foxtail, shattercane and velvetleaf. The herbicide was applied five (5) days after PPI initiation and observation of test result (shown in Table 47) made eight (8) days later.
In Table 47 COUNTER 15G is abbreviated as "C" and the antidotes as "A" in the column headings which indicate the "C + A" ratios used in the tests. Control and COUNTER treatments are average of four (4) replications and COUNTER + Antidote treatments, average of 2 reps. […]

Corn [7] = conditions: […]
Corn [8] = conditions: […]; PPI; 14 days after PPI (Table 34)
[9] = Ex. 2: Insecticide 2 3.36 Kg/Ha + Herbicide 2 4.48 Kg/Ha
[10] = observed 8 days later (Table 32)
[11] = observed 8 days later (Table 33)
[12] = Ex. 2: Insecticide 1 (0.23 Kg/Ha) + Herbicide 9 2.24 Kg/Ha
[13] = Ex. 2: Insecticide 2 3.36 Kg/Ha + Herbicide 9 2.24 Kg/Ha

SMILES: COC(=O)c1ccccc1CS(=O)(=O)NC(=O)Nc1nc(OC)cc(OC)n1 [Herbicide No. 14, Benzoic acid, 2-[[[[[(4,6-dimethoxy-2-pyrimidinyl)amino]carbonyl]amino]sulfonyl]methyl]-, methyl ester, reference compound]
- safening of herbicide/COUNTER 15G corn injury by the antidotes (Corn [1]): effectively reduced corn injury

SMILES: COc1nc(C)nc(NC(=O)NS(=O)(=O)c2ccccc2Cl)n1 [Herbicide No. 12, Benzenesulfonamide, 2-chloro-N-[[(4-methoxy-6-methyl-1,3,5-triazin-2-yl)amino]carbonyl]-, reference compound]
- safening of herbicide/COUNTER 15G corn injury by the antidotes (Corn [1]): effectively reduced corn injury

SMILES: COc1nc(C)nc(NC(=O)NS(=O)(=O)c2ccccc2OCCCl)n1 [Herbicide No. 11, Benzenesulfonamide, 2-(2-chloroethoxy)-N-[[(4-methoxy-6-methyl-1,3,5-triazin-2-yl)amino]carbonyl]-, reference compound]
- safening of herbicide/COUNTER 15G corn injury by the antidotes (Corn [1]): effectively reduced corn injury

SMILES: COC(=O)c1ccccc1S(=O)(=O)NC(=O)Nc1nc(C)cc(C)n1 [Herbicide No. 13, reference compound]
- safening of herbicide/COUNTER 15G corn injury by the antidotes (Corn [1]): limited to nil

SMILES: CCOCN(C(=O)CCl)c1c(C)cccc1CC [Herbicide No. 2, 2-Chloro-2'-ethyl-6'-methyl-N-(ethoxymethyl)acetanilide, reference compound]
- % Injury Corn (Corn [2]; Ex. 2: Insecticide 1 0.23 Kg/305m (ditto mark) + Herbicide 2 4.48 Kg/Ha (so in the source)): 66% and 93%
- % Injury Corn (Corn [2]; [9]): 76%
- % Injury Corn (Corn [2]; Ex. 3: Herbicide 2 4.48 Kg/Ha): 78%
- % Injury Corn (Corn [2]; Ex. 3: Insecticide 3 (227 g) + Herbicide 2 4.48 Kg/Ha): 83%
- % Injury Corn (Corn [2]; Ex. 3: Insecticide 4 (227g) + Herbicide 2 4.48 Kg/Ha): 95%
- % Injury VELE [3, 9]: 35%

SMILES: CCSC(=O)COC(c1ccccc1)c1ccccc1 [compound 51]
- % Inhibition SHCA (Shattercane (SHCA); [10]): 80%
- % Inhibition SHCA (Shattercane (SHCA); [11]): 35%
- % Inhibition VELE (Velvetleaf (VELE) [4]; [10]): 85%
- % Inhibition VELE (Velvetleaf (VELE) [4]; [11]): 70%
- % Inhibition GIFT (Giant foxtail (GIFT)): 65%
- % Inhibition VELE (Velvetleaf (VELE) [5]): 90%
- % Corn Inhibition C:A Ratios 5 (Corn [6]; C:A ratio 5): 0%
- % Corn Inhibition C:A Ratios 10 (Corn [6]; C:A ratio 10): 5%
- % Corn Inhibition C:A Ratios 20 (Corn [6]; C:A ratio 20): 3%
- % Corn Inhibition C:A Ratios 40 (Corn [6]; C:A ratio 40): 8%
- % Corn Inhibition C:A Ratios 80 (Corn [6]; C:A ratio 80): 10%
- % Corn Inhibition C:A Ratios 160 (Corn [6]; C:A ratio 160): 10%
- % Inhibition Corn (Corn [7]; [10]): 0%
- % Inhibition Corn (Corn [7]; [11]): 30%
- % Inhibition Corn (Corn [8]): 25%

SMILES: CCNc1nc(Cl)nc(NC(C)C)n1 [Herbicide No. 9, 2-Chloro-4-(ethylamino)-6-(isopropylamino)-S-triazine, reference compound]
- % Injury Corn (Corn [2]; [12]): 3%
- % Injury Corn (Corn [2]; [13]): 0%
- injury to corn (Corn [2]; Ex. 2: combination of the insecticides (Nos. 1, 2) with atrazine): did not appear to be any significant injury
- % Injury Corn (Corn [2]; Ex. 3: Herbicide 9 2.24 Kg/Ha): 0%
- % Injury Corn (Corn [2]; Ex. 3: Insecticide 3 (227 g) + Herbicide 9 2.24 Kg/Ha): 0%
- % Injury Corn (Corn [2]; Ex. 3: Insecticide 4 (227 g) + Herbicide 9 2.24 Kg/Ha): 0%
- % Injury VELE [3, 12]: 88%
- % Injury VELE [3, 13]: 30%
